Results from patent publication US9381518B2, “Nano-suspension process” (MERCK SHARP & DOHME CORP., priority 2011, dated 2016).
Read-outs that look alike come from different tables or passages of the source.

Tests used:
[1] = 90 minutes
Experimental: Example nano-suspensions were evaluated for particle size and particle size distribution using dynamic light scattering (DLS, Wyatt, DyanoPro Plate Reader). Results reported for particle size analysis (D50 and D90) have their ordinary meaning as understood in the art of particle-size analysis. Unless otherwise indicated, values for D50 and D90 are reported in nanometers (nm). The APC in example nano-suspensions was evaluated using high performance liquid chromatography (HPLC, Hewlett Packard, Agilent 1100). Residual metals analysis was performed using inductively coupled plasma mass spectroscopy (ICP-MS, Perkin Elmer).
The temperature of each nano-suspension was determined using a thermometer immediately after the milling time was completed. Particle size and metals content were analyzed as described herein. The nano-suspension product produced in each operation was recovered through centrifuge filtration over a 10 micron polypropylene mesh (Nanomill) or through a syringe equipped with a 20-gauge needle (acoustic mixer). In the case of the nano-suspension prepared with acoustic mixing, the YTZ milling media is sufficiently dense that it settles from the nano-suspension and permits separation by decantation without the need for separation through a mesh.

[2] = Particle size analysis (D50, D90) of nano-suspensions by dynamic light scattering; format: physicochemical; details: 90 minutes, PVP-K29-32/SDS in water

For `COc1ccc2cc([C@H](C)C(=O)O)ccc2c1` [Naproxen sodium], the “Residual Metals” value ([1]; Elan Nanomill high-shear milling) was greater than 1000 ppm, the “Residual Metals” value ([1]; Resodyn LabRAM acoustic mixer) was less than 1 ppm and the “Drug nanoparticle diameter (D50)” value ([2]; Elan Nanomill high-shear milling, polystyrene milling beads) was 354 nm. For the same molecule, the “Drug nanoparticle diameter (D50)” value ([2]; Resodyn LabRAM acoustic mixer, YTZ milling beads) was 286 nm.
